Assay results reported in PubChem BioAssay (NCI).
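Assay format: 96-well plates, 48-hour exposure. The concentration for 50% growth inhibition is given as GI50. TGI: concentration producing complete growth inhibition.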

Assays:
Assay in all cases: inhibition of tumour cell growth, NCI panel, 48 h
[1] = test system: ACHN renal
[2] = test system: U251 CNS
[3] = test system: M14 melanoma
[4] = test system: DU-145 prostate
[5] = test system: BT-549 breast
[6] = test system: COLO 205 colon
[7] = test system: HT29 colon
[8] = test system: EKVX NSCLC
[9] = test system: OVCAR-8 ovarian
[10] = test system: MDA-MB-231 breast
[11] = test system: HCT-116 colon
[12] = test system: A549 NSCLC
[13] = test system: RPMI-8226 leukemia
[14] = test system: SF-268 CNS
[15] = test system: HOP-92 NSCLC
[16] = test system: SF-539 CNS
[17] = test system: KM12 colon
[18] = test system: MDA-MB-435
[19] = test system: HOP-62 NSCLC
[20] = test system: SK-MEL-2 melanoma
[21] = test system: NCI-H522 lung
[22] = test system: SNB-19 CNS
[23] = test system: OVCAR-4 ovarian
[24] = test system: OVCAR-5 ovarian
[25] = test system: MOLT-4 leukemia
[26] = test system: NCI-H460 lung
[27] = test system: SK-MEL-28 melanoma
[28] = test system: K-562 leukemia
[29] = test system: LOX IMVI melanoma
[30] = test system: SK-OV-3 ovarian
[31] = test system: NCI-H226 lung
[32] = test system: OVCAR-3 ovarian
[33] = test system: CCRF-CEM leukemia
[34] = test system: RXF 393 renal
[35] = test system: CAKI-1 renal
[36] = test system: UO-31 renal
[37] = test system: MALME-3M melanoma
[38] = test system: UACC-62 melanoma
[39] = test system: HCC-2998 colon
[40] = test system: UACC-257 melanoma
[41] = test system: SN12C renal
[42] = test system: SF-295 CNS
[43] = test system: HCT-15 colon
[44] = test system: NCI-H23 lung
[45] = test system: 786-0 renal
[46] = test system: SNB-75 CNS
[47] = test system: HL-60(TB) leukemia
[48] = test system: T-47D breast
[49] = test system: SK-MEL-5 melanoma
[50] = test system: NCI/ADR-RES ovarian
[51] = test system: SW-620 colon
[52] = test system: A498 renal
[53] = test system: PC-3 prostate
[54] = test system: MCF7 breast
[55] = test system: HS 578T breast
[56] = test system: SR leukemia
[57] = test system: TK-10 renal
[58] = test system: IGROV1 ovarian

C=C(C)[C@@H]1CC[C@]2(COCCCNCCCN)CC[C@]3(C)[C@H](CC[C@@H]4[C@@]5(C)CC[C@H](OCCCN)C(C)(C)[C@@H]5CC[C@]43C)[C@@H]12
GI50 [1]: 0.996 µM
TGI [1]: 1.95 µM
GI50 [2]: 0.836 µM
TGI [2]: 1.54 µM
GI50 [3]: 0.866 µM
TGI [3]: 1.65 µM
GI50 [4]: 0.895 µM
TGI [4]: 1.62 µM
GI50 [5]: 6.86 µM
TGI [5]: 14.2 µM
GI50 [6]: 0.778 µM
TGI [6]: 1.56 µM
GI50 [7]: 0.813 µM
TGI [7]: 1.53 µM
GI50 [8]: 0.812 µM
TGI [8]: 1.61 µM
GI50 [9]: 0.903 µM
TGI [9]: 1.72 µM
GI50 [10]: 0.863 µM
TGI [10]: 1.67 µM
GI50 [11]: 0.898 µM
TGI [11]: 1.67 µM
GI50 [12]: 0.909 µM
TGI [12]: 1.71 µM
GI50 [13]: 1.07 µM
TGI [13]: 2.56 µM
GI50 [14]: 6.77 µM
TGI [14]: 15.1 µM
GI50 [15]: 2.1 µM
TGI [15]: 9.76 µM
GI50 [16]: 0.891 µM
TGI [16]: 1.59 µM
GI50 [17]: 0.928 µM
TGI [17]: 1.73 µM
GI50 [18]: 0.833 µM
TGI [18]: 1.53 µM
GI50 [19]: 0.831 µM
TGI [19]: 1.62 µM
GI50 [20]: 6.86 µM
TGI [20]: 13.8 µM
GI50 [21]: 0.868 µM
TGI [21]: 1.72 µM
GI50 [22]: 0.913 µM
TGI [22]: 1.66 µM
GI50 [23]: 0.934 µM
TGI [23]: 1.78 µM
GI50 [24]: 0.918 µM
TGI [24]: 1.67 µM
GI50 [25]: 1.05 µM
TGI [25]: 2.58 µM
GI50 [26]: 0.94 µM
TGI [26]: 1.75 µM
GI50 [27]: 0.876 µM
TGI [27]: 1.6 µM
GI50 [28]: 0.879 µM
TGI [28]: 1.82 µM
GI50 [29]: 0.846 µM
TGI [29]: 1.57 µM
GI50 [30]: 1.39 µM
TGI [30]: 4.28 µM
GI50 [31]: 1.04 µM
TGI [31]: 2.34 µM
GI50 [32]: 0.942 µM
TGI [32]: 1.72 µM
GI50 [33]: 0.822 µM
TGI [33]: 1.97 µM
GI50 [34]: 0.825 µM
TGI [34]: 1.61 µM
GI50 [35]: 0.982 µM
TGI [35]: 2.3 µM
GI50 [36]: 0.765 µM
TGI [36]: 1.5 µM
GI50 [37]: 0.801 µM
TGI [37]: 1.53 µM
GI50 [38]: 0.914 µM
TGI [38]: 1.67 µM
GI50 [39]: 0.96 µM
TGI [39]: 1.81 µM
GI50 [40]: 0.914 µM
TGI [40]: 1.75 µM
GI50 [41]: 0.867 µM
TGI [41]: 1.62 µM
GI50 [42]: 0.868 µM
TGI [42]: 1.59 µM
GI50 [43]: 0.86 µM
TGI [43]: 1.59 µM
GI50 [44]: 0.934 µM
TGI [44]: 1.79 µM
GI50 [45]: 0.825 µM
TGI [45]: 1.5 µM
GI50 [46]: 0.778 µM
TGI [46]: 1.57 µM
GI50 [47]: 2.12 µM
TGI [47]: 8.33 µM
GI50 [48]: 0.858 µM
TGI [48]: 1.71 µM
GI50 [49]: 1.72 µM
TGI [49]: 5.81 µM
GI50 [50]: 0.936 µM
TGI [50]: 1.87 µM
GI50 [51]: 0.871 µM
TGI [51]: 1.67 µM
GI50 [52]: 7.22 µM
TGI [52]: 14.4 µM
GI50 [53]: 0.874 µM
TGI [53]: 1.72 µM
GI50 [54]: 0.879 µM
TGI [54]: 1.7 µM
GI50 [55]: 0.997 µM
TGI [55]: 2.15 µM
GI50 [56]: 0.577 µM
TGI [56]: 1.94 µM
GI50 [57]: 0.952 µM
TGI [57]: 1.94 µM
GI50 [58]: 0.93 µM
TGI [58]: 1.72 µM
